One test concerns the target T1, recombinant human Icmt (Homo sapiens, UniProt O60725).
T1 construct: recombinant baculovirus containing the entire open reading frame of the human Icmt cDNA; made in house; host or cells: Sf9 insect cells (baculovirus); membrane fraction used
Put plainly: Icmt assay: [3H]methyl incorporation from [3H]AdoMet into BFC. It is filed as biochemical.

The target of the next test is T2, Rce1 protease (Homo sapiens, UniProt Q9Y256).
T2 construct: made in house; host or cells: Sf9 insect cells; membranes
T2 sequence (Q9Y256 1-329): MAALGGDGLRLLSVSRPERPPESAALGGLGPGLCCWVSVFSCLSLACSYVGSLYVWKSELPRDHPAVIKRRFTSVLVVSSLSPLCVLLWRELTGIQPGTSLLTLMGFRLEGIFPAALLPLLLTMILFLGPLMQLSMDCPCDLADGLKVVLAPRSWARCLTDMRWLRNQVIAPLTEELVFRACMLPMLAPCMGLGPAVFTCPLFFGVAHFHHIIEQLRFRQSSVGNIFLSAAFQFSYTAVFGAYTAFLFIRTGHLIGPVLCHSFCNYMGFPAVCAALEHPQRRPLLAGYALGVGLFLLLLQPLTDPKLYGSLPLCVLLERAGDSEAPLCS
Put plainly: Rce1 protease inhibition (results not shown). As to conditions: concentrations up to 50 μM. In kind it is biochemical.

Usually IC50 stands for the concentration that inhibits the measured activity by half.

Where two headings read alike, the source gives them in different places. Bounds are passed on as bounds.

T1 sequence (O60725 whole entry): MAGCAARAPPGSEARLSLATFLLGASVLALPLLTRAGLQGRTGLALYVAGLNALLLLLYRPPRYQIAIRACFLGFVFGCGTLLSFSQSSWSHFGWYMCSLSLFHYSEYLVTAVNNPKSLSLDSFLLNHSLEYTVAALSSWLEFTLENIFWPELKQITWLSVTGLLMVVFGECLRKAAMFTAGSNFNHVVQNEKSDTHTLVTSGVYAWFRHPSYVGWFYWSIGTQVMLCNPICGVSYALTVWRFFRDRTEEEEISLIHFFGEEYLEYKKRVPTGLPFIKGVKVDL

In the case of `CCCCCCCCn1cc(CC(N)=O)c2cc(-c3cccc(C)c3)ccc21` [cysmethynil, 2-[5-(3-methylphenyl)-1-octyl-1H-indol-3-yl]acetamide], the half-inhibitory concentration (IC50) at recombinant human Icmt (BFC substrate, substrates and inhibitor premixed, reaction initiated by addition of enzyme, read-out: IC50 for Icmt inhibition) is 2400 nM; on recombinant human Icmt (Table 1, R1 substituent x scaffold matrix, read-out: IC50), 2100 ± 900 nM; at recombinant human Icmt (Table 3, pre-incubation with Icmt for 30 min at 37° C., read-out: IC50 PI (converted)), 290 nM; on recombinant human Icmt (Table 3, without pre-incubation of the enzyme with the compound, read-out: IC50 No PI), 2100 ± 900 nM; at recombinant human Icmt (enzyme premixed with inhibitor and AdoMet for 15 min prior to initiation with BFC, read-out: IC50 for Icmt inhibition), below 200 nM. Moreover, at Rce1 protease, the “inhibition of Rce1 protease” value is listed as “did not inhibit”.

The values above are taken from US7964629B2, “Inhibitors of isoprenylcysteine carboxyl methyltransferase” (Duke Universtiy, priority 2005, dated 2011).
